The record followed here is ChEMBL document CHEMBL4043270, “Design, synthesis and biological evaluation of 2-phenylquinoline-4-carboxamide derivatives as a new class of tubulin polymerization inhibitors” (Bioorg Med Chem, 2017).

Experiment [1] concerns SK-OV-3. Kind of experiment: Antiproliferative activity against human SKOV3 cells by SRB assay. It is filed as functional, cell-based.
The subject of experiment [2] is MDA-MB-468. Kind of experiment: Antiproliferative activity against human MDA-MB-468 cells by SRB assay. The experiment is classed as functional, cell-based.
Experiment [3] relates to HCT-116. Kind of experiment: Antiproliferative activity against human HCT116 cells by SRB assay. The experiment is classed as functional, cell-based.
Experiment [4] relates to MRC5. Description: Antiproliferative activity against human MRC5 cells by SRB assay. The experiment is classed as cell-based.
Experiment [5] concerns HeLa. Kind of experiment: Antiproliferative activity against human HeLa cells by SRB assay. It is filed as functional, cell-based.
Experiment [6] has as its system A549. Description: Antiproliferative activity against human A549 cells by SRB assay. The experiment is classed as functional, cell-based.
For experiment [7], the species on record is Homo sapiens. Description: Displacement of colchicine from tubulin (unknown origin) at 0.1 to 10 uM after 1 hr by fluorescence assay.

Active and inactive are the calls of the source. The rule behind the calls is not given here.

Consider `COc1ccc(NC(=O)c2cc(-c3ccc4c(c3)OCO4)nc3ccccc23)cc1`, for which the IC50 in experiment [1] is 43.4 µM; in experiment [2] it was more than 50 µM; in experiment [3] it was more than 50 µM; in experiment [4] it was more than 50 µM; in experiment [5], more than 50 µM; in experiment [6], 46.3 µM.
As for `COc1ccc(NC(=O)c2c3c(nc4ccc(Cl)cc24)-c2ccccc2CC3)cc1`, the IC50 was 37.6 µM in experiment [1]; more than 50 µM in experiment [2]; 39.5 µM in experiment [3]; more than 50 µM in experiment [4]; more than 50 µM in experiment [5]; more than 50 µM in experiment [6].
On to `COc1ccc(NC(=O)c2cc(-c3ccccc3C)nc3ccccc23)cc1`, for which the IC50 in experiment [1] was 36.7 µM; in experiment [2] it was more than 50 µM; in experiment [3] it was 31.4 µM; in experiment [4] it was more than 50 µM; in experiment [5] it was 42.8 µM; in experiment [6], more than 50 µM.
Regarding `COc1ccc(NC(=O)c2cc(-c3ccc(C(F)(F)F)cc3)nc3ccccc23)c(C)c1`, the IC50 in experiment [1] is more than 50 µM; in experiment [2], more than 50 µM; in experiment [3] it was 47.3 µM; in experiment [4], more than 50 µM; in experiment [5] it was more than 50 µM; in experiment [6], more than 50 µM.
For `COc1ccc(NC(=O)c2cc(-c3ccc(C)cc3)nc3ccc(C)cc23)c(C)c1`, the half-inhibitory concentration (IC50) in experiment [1] was 12.3 µM; in experiment [2] it was 46.1 µM; in experiment [3] it was 11.9 µM; in experiment [4] it was more than 50 µM; in experiment [5], 20.4 µM; in experiment [6], 30.1 µM.
In the case of `CC[C@]1(O)C[C@@H]2CN(CCc3c([nH]c4ccccc34)[C@@](C(=O)OC)(c3cc4c(cc3OC)N(C)[C@H]3[C@@](O)(C(=O)OC)[C@H](OC(C)=O)[C@]5(CC)C=CCN6CC[C@]43[C@@H]65)C2)C1`, in experiment [7], the inhibition entry is “inactive”.
Turning to `COc1ccc(NC(=O)c2cc(-c3cccc(C)c3)nc3ccccc23)cc1`, the IC50 was 12.4 µM in experiment [1]; more than 50 µM in experiment [2]; 9.4 µM in experiment [3]; more than 50 µM in experiment [4]; 30.2 µM in experiment [5]; 30.5 µM in experiment [6].
Regarding `COc1cc2c(c(OC)c1OC)-c1ccc(OC)c(=O)cc1[C@@H](NC(C)=O)CC2` [COLCHICINE], the half-inhibitory concentration (IC50) in experiment [1] was found to be 0.05 µM; in experiment [2], 0.06 µM; in experiment [3] it was 0.01 µM; in experiment [4], 0.09 µM; in experiment [5] it was 0.5 µM; in experiment [6] it was 0.02 µM.
For `COc1ccc(NC(=O)c2cc(-c3ccccc3)nc3ccc(Cl)cc23)c(C)c1`, the concentration for half-maximal inhibition (IC50) is 34.2 µM in experiment [1]; more than 50 µM in experiment [2]; 27.4 µM in experiment [3]; more than 50 µM in experiment [4]; more than 50 µM in experiment [5]; more than 50 µM in experiment [6].
On to `COc1ccc(NC(=O)c2cc(-c3ccc(C)cc3)nc3ccccc23)c(C)c1`, for which the IC50 in experiment [1] was found to be 4.2 µM; in experiment [2], 17.4 µM; in experiment [3] it was 1.7 µM; in experiment [4], 48.1 µM; in experiment [5], 9.5 µM; in experiment [6], 11.6 µM.
For `O=C(NC(Cc1ccccc1)C(=O)OCc1ccccc1)c1cc(-c2ccccc2)nc2ccccc12` (configuration not stated), the IC50 was more than 50 µM in experiment [1]; more than 50 µM in experiment [2]; 36.1 µM in experiment [3]; more than 50 µM in experiment [4]; more than 50 µM in experiment [5]; more than 50 µM in experiment [6].
As for `COc1ccc(NC(=O)c2cc(-c3ccc(C)cc3)nc3ccccc23)cc1`, the IC50 worked out at 6.3 µM in experiment [1]; 35.2 µM in experiment [2]; 3.7 µM in experiment [3]; 47.8 µM in experiment [4]; 25.2 µM in experiment [5]; 18.5 µM in experiment [6].
As to `COc1ccc(NC(=O)c2cc(-c3ccc(C)cc3)nc3ccc(C)cc23)cc1`, the IC50 is 8.3 µM in experiment [1]; 32.4 µM in experiment [2]; 10.4 µM in experiment [3]; more than 50 µM in experiment [4]; 16.4 µM in experiment [5]; 29.7 µM in experiment [6].
As for `COC(=O)C1=C(NC(=O)c2cc(-c3ccccc3)nc3ccccc23)NC=CN1`, the half-inhibitory concentration (IC50) is 38.9 µM in experiment [1]; more than 50 µM in experiment [2]; 29.5 µM in experiment [3]; more than 50 µM in experiment [4]; 36.8 µM in experiment [5]; more than 50 µM in experiment [6].
On to `COc1ccc(NC(=O)c2cc(-c3ccccc3)nc3ccccc23)cc1`, for which the half-maximal inhibitory concentration (IC50) was 12.8 µM in experiment [1]; 34.7 µM in experiment [2]; 4.9 µM in experiment [3]; 40.5 µM in experiment [4]; 32.5 µM in experiment [5]; 20.5 µM in experiment [6].
On to `COc1cccc(NC(=O)c2cc(-c3ccccc3)nc3ccccc23)c1`, for which the IC50 turned out to be 17.4 µM in experiment [1]; 34.7 µM in experiment [2]; 12.9 µM in experiment [3]; 43.8 µM in experiment [4]; 40.5 µM in experiment [5]; 32.5 µM in experiment [6].
Regarding `COc1ccc(NC(=O)c2c3c(nc4ccc(Cl)cc24)-c2ccccc2CC3)c(C)c1`, the IC50 is 32.5 µM in experiment [1]; more than 50 µM in experiment [2]; more than 50 µM in experiment [3]; more than 50 µM in experiment [4]; more than 50 µM in experiment [5]; more than 50 µM in experiment [6].
Consider `COc1cc(NC(=O)c2cc(-c3ccc(C)cc3)nc3ccc(C)cc23)cc(OC)c1OC`, for which the IC50 in experiment [1] is 6.2 µM; in experiment [2] it was 37.1 µM; in experiment [3] it was 5.2 µM; in experiment [4], 42.7 µM; in experiment [5] it was 13.5 µM; in experiment [6], 20.3 µM.
As for `COc1cc(NC(=O)c2cc(-c3ccccc3)nc3ccc(Cl)cc23)cc(OC)c1OC`, the 50% inhibitory concentration (IC50) in experiment [1] was 24.1 µM; in experiment [2], more than 50 µM; in experiment [3], 36.4 µM; in experiment [4] it was more than 50 µM; in experiment [5], more than 50 µM; in experiment [6], more than 50 µM.
As to `COc1cc(NC(=O)c2cc(-c3cccc(C)c3)nc3ccccc23)cc(OC)c1OC`, the half-inhibitory concentration (IC50) in experiment [1] amounted to 10.6 µM; in experiment [2], 32.7 µM; in experiment [3], 11.6 µM; in experiment [4], 42.3 µM; in experiment [5], 5.3 µM; in experiment [6], 17.8 µM.
In the case of `COc1ccc(NC(=O)c2cc(-c3ccccc3)nc3ccc(F)cc23)cc1`, the IC50 is 29.7 µM in experiment [1]; more than 50 µM in experiment [2]; 34.2 µM in experiment [3]; more than 50 µM in experiment [4]; more than 50 µM in experiment [5]; more than 50 µM in experiment [6].
In the case of `COc1ccc(NC(=O)c2cc(-c3ccccc3C)nc3ccccc23)c(C)c1`, the IC50 was 42.2 µM in experiment [1]; 41.6 µM in experiment [2]; 43.6 µM in experiment [3]; more than 50 µM in experiment [4]; more than 50 µM in experiment [5]; 45.7 µM in experiment [6].
`COc1cc(NC(=O)c2cc(-c3ccccc3)nc3ccccc23)cc(OC)c1OC`: the IC50 was 5.4 µM in experiment [1]; 18.9 µM in experiment [2]; 2.7 µM in experiment [3]; 38.8 µM in experiment [4]; 12.7 µM in experiment [5]; 17.9 µM in experiment [6].
Turning to `CCOc1ccc(NC(=O)c2cc(-c3ccccc3)nc3ccccc23)cc1`, the IC50 is 45.8 µM in experiment [1]; more than 50 µM in experiment [2]; 49.1 µM in experiment [3]; more than 50 µM in experiment [4]; more than 50 µM in experiment [5]; more than 50 µM in experiment [6].
Regarding `COc1ccc(NC(=O)c2cc(-c3ccccc3)nc3ccccc23)c(C)c1`, the IC50 is 8.4 µM in experiment [1]; 20.1 µM in experiment [2]; 7.8 µM in experiment [3]; more than 50 µM in experiment [4]; 16.4 µM in experiment [5]; 23.7 µM in experiment [6].
With `COc1ccc(NC(=O)c2cc(-c3ccccc3)nc3ccc(Cl)cc23)cc1`, the concentration for half-maximal inhibition (IC50) is 20.3 µM in experiment [1]; more than 50 µM in experiment [2]; 24.8 µM in experiment [3]; more than 50 µM in experiment [4]; 40.2 µM in experiment [5]; more than 50 µM in experiment [6].
With `CSc1cccc(NC(=O)c2cc(-c3ccccc3)nc3ccccc23)c1`, the IC50 is 36.8 µM in experiment [1]; 42.8 µM in experiment [2]; 48.3 µM in experiment [3]; more than 50 µM in experiment [4]; 45.8 µM in experiment [5]; more than 50 µM in experiment [6].
Regarding `COc1cc(OC)c(NC(=O)c2cc(-c3ccccc3)nc3ccccc23)cc1Cl`, the half-maximal inhibitory concentration (IC50) in experiment [1] was 36.3 µM; in experiment [2], 42.8 µM; in experiment [3] it was more than 50 µM; in experiment [4] it was more than 50 µM; in experiment [5] it was 42.6 µM; in experiment [6], more than 50 µM.
Consider `COC(=O)c1sccc1NC(=O)c1cc(-c2ccccc2)nc2ccccc12`, for which the IC50 in experiment [1] turned out to be 20.3 µM; in experiment [2], 36.8 µM; in experiment [3] it was 22.6 µM; in experiment [4], 46.3 µM; in experiment [5], 34.5 µM; in experiment [6], 48.7 µM.
Regarding `COc1ccc(NC(=O)c2cc(-c3cccc(C)c3)nc3ccccc23)c(C)c1`, the IC50 was 15.3 µM in experiment [1]; 32.1 µM in experiment [2]; 14.6 µM in experiment [3]; more than 50 µM in experiment [4]; 10.4 µM in experiment [5]; 23.6 µM in experiment [6].
Consider `Cc1cc(NC(=O)c2cc(-c3ccccc3)nc3ccccc23)no1`, for which the IC50 in experiment [1] is 36.6 µM; in experiment [2], 46.2 µM; in experiment [3], 25.8 µM; in experiment [4] it was more than 50 µM; in experiment [5], more than 50 µM; in experiment [6] it was 37.9 µM.
As to `C=CCNC(=S)NC(=O)c1cc(-c2ccccc2)nc2ccccc12`, the IC50 in experiment [1], in experiment [2], in experiment [3], in experiment [4], in experiment [5] and in experiment [6] was more than 50 µM each time.
